Experiments:
[1] = system: Canis familiaris; assay: In vivo beta-adrenergic receptor blockade in iv dosed anesthetized dog assessed as inhibition of isoproterenol-induced hypotension; format: functional; settings: Canis lupus familiaris
[2] = system: Canis familiaris; assay: In vivo beta-adrenergic receptor blockade in iv dosed anesthetized dog assessed as inhibition of isoproterenol-induced tachycardia; format: functional; settings: Canis lupus familiaris
[3] = system: Canis familiaris; assay: Vasodilatory activity in anesthetized dog assessed as increase in iliac blood flow […] ia; format: functional, Canis lupus familiaris, Artery
[4] = system: Canis familiaris; assay: Vasodilatory activity in anesthetized dog assessed as increase in iliac blood flow […] measured after 800 ug/kg, iv beta-adrenergic receptor blocker timolol administration; format: functional, Canis lupus familiaris, Artery
[5] = system: Canis familiaris; assay: Vasodilatory activity in anesthetized dog assessed as increase in iliac blood flow […] measured after 2000 ug/kg, iv beta-adrenergic receptor blocker timolol administration; format: functional, Canis lupus familiaris, Artery
[6] = system: Rattus norvegicus; assay: Antihypertensive activity in spontaneously hypertensive Wistar-Okamoto rat assessed as maximal fall in mean arterial pressure at 20 mg/kg, po; format: functional, Artery
[7] = system: Rattus norvegicus; assay: Antihypertensive activity in spontaneously hypertensive Wistar-Okamoto rat assessed as maximal fall in mean arterial pressure at 0.078 mg/kg, po; format: functional, Artery
[8] = system: Rattus norvegicus; assay: Antihypertensive activity in spontaneously hypertensive Wistar-Okamoto rat assessed as duration of action at 1.25 mg/kg, po; format: functional
[9] = system: Rattus norvegicus; assay: Antihypertensive activity in spontaneously hypertensive Wistar-Okamoto rat assessed as duration of action at 0.312 mg/kg, po; format: functional
[10] = system: Canis familiaris; assay: Vasodilatory activity in anesthetized dog assessed as increase in iliac blood flow at 250 mg, ia measured after 800 ug/kg, iv beta-adrenergic receptor blocker timolol administration; format: functional, Canis lupus familiaris, Artery
[11] = system: Canis familiaris; assay: Vasodilatory activity in anesthetized dog assessed as increase in iliac blood flow at 64 mg, ia measured after 800 ug/kg, iv beta-adrenergic receptor blocker timolol administration; format: functional, Canis lupus familiaris, Artery
[12] = system: Rattus norvegicus; assay: Antihypertensive activity in spontaneously hypertensive Wistar-Okamoto rat assessed as maximal fall in mean arterial pressure at 1.25 mg/kg, po; format: functional, Artery
[13] = system: Rattus norvegicus; assay: Antihypertensive activity in spontaneously hypertensive Wistar-Okamoto rat assessed as maximal fall in mean arterial pressure at 0.312 mg/kg, po; format: functional, Artery
[14] = system: Rattus norvegicus; assay: Antihypertensive activity in spontaneously hypertensive Wistar-Okamoto rat assessed as maximal fall in mean arterial pressure at 20 mg/kg, ip; format: functional, Artery; settings: route intraperitoneal
[15] = system: Rattus norvegicus; assay: Antihypertensive activity in spontaneously hypertensive Wistar-Okamoto rat assessed as duration of action at 20 mg/kg, ip; format: functional; settings: route intraperitoneal
[16] = system: Canis familiaris; assay: Vasodilatory activity in anesthetized dog assessed as increase in iliac blood flow […] measured after 320 ug/kg, iv beta-adrenergic receptor blocker timolol administration; format: functional, Canis lupus familiaris, Artery
[17] = system: Rattus norvegicus; assay: Antihypertensive activity in spontaneously hypertensive Wistar-Okamoto rat assessed as duration of action at 20 mg/kg, po; format: functional
[18] = system: Rattus norvegicus; assay: Antihypertensive activity in spontaneously hypertensive Wistar-Okamoto rat assessed as maximal fall in mean arterial pressure at 5 mg/kg, ip; format: functional, Artery; settings: route intraperitoneal
[19] = system: Rattus norvegicus; assay: Antihypertensive activity in spontaneously hypertensive Wistar-Okamoto rat assessed as duration of action at 5 mg/kg, ip; format: functional; settings: route intraperitoneal
[20] = system: Rattus norvegicus; assay: Antihypertensive activity in spontaneously hypertensive Wistar-Okamoto rat assessed as duration of action at 5 mg/kg, po; format: functional
[21] = system: Canis familiaris; assay: Vasodilatory activity in anesthetized dog assessed as increase in iliac blood flow at 250 mg, ia measured after 2000 ug/kg, iv beta-adrenergic receptor blocker timolol administration; format: functional, Canis lupus familiaris, Artery
[22] = system: Canis familiaris; assay: Vasodilatory activity in anesthetized dog assessed as increase in iliac blood flow at 64 mg, ia measured after 2000 ug/kg, iv beta-adrenergic receptor blocker timolol administration; format: functional, Canis lupus familiaris, Artery
[23] = system: Rattus norvegicus; assay: Antihypertensive activity in spontaneously hypertensive Wistar-Okamoto rat assessed as maximal fall in mean arterial pressure at 5 mg/kg, po; format: functional, Artery
[24] = system: Rattus norvegicus; assay: Antihypertensive activity in spontaneously hypertensive Wistar-Okamoto rat assessed as duration of action at 1 mg/kg, po; format: functional
[25] = system: Rattus norvegicus; assay: Antihypertensive activity in spontaneously hypertensive Wistar-Okamoto rat assessed as duration of action at 2 mg/kg, po; format: functional
[26] = system: Rattus norvegicus; assay: Antihypertensive activity in spontaneously hypertensive Wistar-Okamoto rat assessed as duration of action at 8 mg/kg, po; format: functional
[27] = system: Canis familiaris; assay: Vasodilatory activity in anesthetized dog assessed as increase in iliac blood flow at 800 mg, ia; format: functional, Canis lupus familiaris, Artery
[28] = system: Canis familiaris; assay: Vasodilatory activity in anesthetized dog assessed as increase in iliac blood flow at 800 mg, ia measured after 320 ug/kg, iv beta-adrenergic receptor blocker timolol administration; format: functional, Canis lupus familiaris, Artery
[29] = system: Canis familiaris; assay: Vasodilatory activity in anesthetized dog assessed as increase in iliac blood flow at 800 mg, ia measured after 800 ug/kg, iv beta-adrenergic receptor blocker timolol administration; format: functional, Canis lupus familiaris, Artery
[30] = system: Rattus norvegicus; assay: Antihypertensive activity in spontaneously hypertensive Wistar-Okamoto rat assessed as maximal fall in mean arterial pressure at 1 mg/kg, po; format: functional, Artery
[31] = system: Rattus norvegicus; assay: Antihypertensive activity in spontaneously hypertensive Wistar-Okamoto rat assessed as maximal fall in mean arterial pressure at 2 mg/kg, po; format: functional, Artery
[32] = system: Rattus norvegicus; assay: Antihypertensive activity in spontaneously hypertensive Wistar-Okamoto rat assessed as maximal fall in mean arterial pressure at 8 mg/kg, po; format: functional, Artery
[33] = system: Rattus norvegicus; assay: Antihypertensive activity in po dosed spontaneously hypertensive Wistar-Okamoto rat assessed as maximal fall in mean arterial pressure; format: functional, organism-based; settings: Artery
[34] = system: Oryctolagus cuniculus; assay: Toxicity in rabbit assessed as teratogenicity measured after high drug dose administration; format: organism-based; settings: in vivo
[35] = system: Rattus norvegicus; assay: Antihypertensive activity in spontaneously hypertensive Wistar-Okamoto rat assessed as maximal fall in mean arterial pressure at 0.625 mg/kg, po; format: functional, Artery

SMILES	ED50 [1]	ED50 [2]	Activity [3]	Activity [5]	Activity [6]	Activity [12]	Time [17]	Activity [23]	other results
CC(C)(C)NC[C@H](O)COc1ccc(-c2ncc[nH]2)cc1	> 1 mg/kg	0.067 mg/kg							
CC(C)(C)NCC(O)COc1ccc(C#N)cn1 (stereo unspecified)			-13 mL/min	19 mL/min	15 mmHg				Activity [4]: -1 mL/min
CC(C)(C)NC[C@H](O)COc1ncccc1C#N.Cl	0.0052 mg/kg	0.0015 mg/kg	98 mL/min	90 mL/min		47 mmHg			Activity [7]: 19 mmHg; Time [8]: >12 h; Time [9]: 1 h; Activity [10]: 62 mL/min; Activity [11]: 38 mL/min; Activity [13]: 30 mmHg
CC(C)(C)NCC(O)COc1ccc(-c2ncc[nH]2)cc1 (stereo unspecified)			36 mL/min						Activity [14]: 33 mmHg; Time [15]: 1 h; Activity [16]: 31 mL/min
CC(C)NCC(O)COc1ncccc1C#N (stereo unspecified)	0.03 mg/kg	0.005 mg/kg	59 mL/min	48 mL/min	40 mmHg		4 h		Activity [14]: 59 mmHg; Time [15]: 8 h; Activity [18]: 26 mmHg; Time [19]: 2 h
CC(C)(C)NC[C@@H](O)COc1ncccc1C#N.Cl	0.1 mg/kg	0.1 mg/kg		82 mL/min	40 mmHg	22 mmHg	4 h	27 mmHg	Time [20]: 1 h; Activity [21]: 22 mL/min; Activity [22]: 13 mL/min
CC(C)(C)NCC(O)COc1ccc(-c2ncc(-c3ccccc3)[nH]2)cc1 (stereo unspecified)	0.083 mg/kg	0.038 mg/kg	46 mL/min	42 mL/min	54 mmHg	20 mmHg	>24 h	30 mmHg	Time [20]: 4 h
Cc1c[nH]c(-c2ccc(OCC(O)CNC(C)(C)C)cc2)n1 (stereo unspecified)			60 mL/min		41 mmHg	24 mmHg	8 h	19 mmHg	Time [8]: <6 h; Time [20]: <8 h; Activity [16]: 33 mL/min
FC(F)(F)c1cnc(-c2cccnc2)[nH]1									Time [24]: 2 h; Time [25]: 6 h; Time [26]: >6 h; Activity [27]: 93 mL/min; Activity [28]: 99 mL/min; Activity [29]: 76 mL/min; Activity [30]: 21 mmHg; Activity [31]: 39 mmHg; Activity [32]: 48 mmHg
NNc1nncc2ccccc12 [HYDRALAZINE]			66 mL/min						Time [24]: 6 h; Time [25]: >7 h; Activity [30]: 30 mmHg; Activity [31]: 40 mmHg
CC(C)(C)NCC(O)COc1ncccc1C#N (stereo unspecified)									inhibition [33]: Dose-dependent effect; Activity [34]: Toxic
CC(C)(C)NCC(O)COc1ccc(-c2ncc(C(F)(F)F)[nH]2)cn1 (stereo unspecified)	0.058 mg/kg	0.0025 mg/kg	103 mL/min				>7 h		Activity [14]: 40 mmHg; Activity [4]: 38 mL/min
Cc1ccc(C#N)c(OCC(O)CNC(C)(C)C)n1 (stereo unspecified)	< 0.01 mg/kg	< 0.01 mg/kg	70 mL/min	43 mL/min				5 mmHg	
CC(C)(C)NCC(O)COc1ncccc1C(F)(F)F (stereo unspecified)	< 0.001 mg/kg	< 0.001 mg/kg	100 mL/min	145 mL/min	36 mmHg	28 mmHg	18 h		Time [8]: 4 h; Activity [10]: 60 mL/min; Activity [11]: 41 mL/min; Activity [13]: 15 mmHg
Cc1cc(OCC(O)CNC(C)(C)C)cc(C)c1-c1ncc(C(F)(F)F)[nH]1 (stereo unspecified)			7 mL/min		30 mmHg		18 h	19 mmHg	Time [20]: 4 h
CC(C)(C)NCC(O)COc1ccccn1 (stereo unspecified)	0.07 mg/kg	0.01 mg/kg		30 mL/min	33 mmHg			10 mmHg	
CC(C)NCC(O)COc1cccc2ccccc12 (stereo unspecified) [PROPRANOLOL]	0.019 mg/kg	0.051 mg/kg			14 mmHg	12 mmHg	12 h	7 mmHg	Time [8]: 8 h; Time [20]: <8 h
Cc1cnc(-c2ccc(OC[C@@H](O)CNC(C)(C)C)cc2)[nH]1	> 1 mg/kg	0.03 mg/kg							
CC(C)(C)NCC(O)COc1cc(C#N)ccn1 (stereo unspecified)	> 0.03 mg/kg	0.03 mg/kg	35 mL/min		55 mmHg	15 mmHg	4 h	30 mmHg	Time [20]: 2 h; Activity [4]: 18 mL/min
CC(C)(C)NCC(O)COc1ccc(-c2nc(C(F)(F)F)c[nH]2)cc1 (stereo unspecified)	0.036 mg/kg	0.009 mg/kg	79 mL/min	15 mL/min		36 mmHg		49 mmHg	Time [8]: 18 h; Time [20]: 18 h; Time [9]: 7 h; Activity [13]: 21 mmHg
CC(C)(C)NC[C@H](O)COc1nsnc1N1CCOCC1 [TIMOLOL]	0.0013 mg/kg	0.0024 mg/kg				-1 mmHg			Time [9]: 8 h; Activity [13]: 32 mmHg; Activity [35]: 0 mmHg
CN(C)CCOc1ncccc1C#N			100 mL/min	72 mL/min					Activity [14]: 49 mmHg; Time [15]: 1 h
Cc1cc(C)c(C#N)c(OCC(O)CNC(C)(C)C)n1 (stereo unspecified)	0.0026 mg/kg	0.0015 mg/kg	33 mL/min	3 mL/min	21 mmHg		8 h	16 mmHg	
CC(C)(C)NCC(O)COc1ncccc1S(C)(=O)=O (stereo unspecified)			10 mL/min		13 mmHg			12 mmHg	Activity [4]: 8 mL/min

Source: ChEMBL document CHEMBL3244122, “Symbiotic approach to drug design: antihypertensive beta-adrenergic blocking agents” (J Med Chem, 1979)
